From US20260130933A1, “PHARMACEUTICAL COMPOSITION FOR PREVENTION OR TREATMENT OF NEPHROPATHY AND/OR DIABETES MELLITUS, COMPRISING ENAVOGLIFLOZIN” (DAEWOONG PHARMACEUTICAL CO., LTD., priority 2022, published 2026)

Experiments:
[1] = Example 5: renal function-related safety, changes in eGFR in the phase 3 trials of Examples 1 to 3; format: in vivo, human; parameters: eGFR, change from baseline: unit not given here; details: for eGFR: in mL/min/1.73m2 (unit assumed)
Text: In phase 3 clinical trials of Examples 1 to 3, the changes in eGFR as an indicator of renal function-related safety were confirmed.

Pharmacokinetics (Tmax) = format: in vivo; details: blood, oral
[2] = Example 6: phase 1 trial, 0.5 mg enavogliflozin in type 2 diabetes patients grouped by eGFR: urinary glucose excretion (UGE) and eGFR; format: in vivo, human
Method: The subjects were divided into the following four groups according to eGFR values, and urinary glucose excretion (UGE) and eGFR were estimated according to the administration of 0.5 mg of enavogliflozin as the test drug (stages 1 and 3: repeated administration (1 week), stages 2 and 4: single administration).

[3] = Dissolution test method 2 of the Korean Pharmacopoeia (paddle method); format: physicochemical; details: average particle size greater than 15 μm
Method: The dissolution rate of the active ingredient in the pharmaceutical composition affects the maximum blood concentration (Cmax) and the blood concentration-area under the blood concentration-time curve (AUC) when administering the drug, that is to say, in order to achieve appropriate Cmax and AUC, it is important to adjust the dissolution rate of the pharmaceutical composition. […] The above dissolution rate was measured under the condition of the dissolved solution 1.2 in accordance of the dissolution test method 2 of the Korean Pharmacopoeia (paddle method). For specific conditions, refer to the following experimental examples.

[4] = Example 7: SD rats treated with streptozotocin (diabetic nephropathy model), oral once a day for 12 weeks: urinary albumin, GS score, TA score; format: in vivo
Method: Accordingly, 60 mg/kg of streptozotocin was administered intravenously to the SD rats and used as an animal model of diabetic nephropathy.

[5] = Week 6, Example 2 (combination therapy with metformin)
[6] = Week 6, Example 3 (combination therapy with metformin/gemigliptin)
[7] = Week 12, Example 2 (combination therapy with metformin)
[8] = Week 12, Example 3 (combination therapy with metformin/gemigliptin)
[9] = Week 18, Example 2 (combination therapy with metformin)
[10] = Week 18, Example 3 (combination therapy with metformin/gemigliptin)
[11] = Week 24, Example 2 (combination therapy with metformin)
[12] = Week 24, Example 3 (combination therapy with metformin/gemigliptin)
[13] = week 6, Example 2 (combination therapy with metformin)
[14] = week 6, Example 3 (combination therapy with metformin/gemigliptin)
[15] = week 12, Example 2 (combination therapy with metformin)
[16] = week 12, Example 3 (combination therapy with metformin/gemigliptin)
[17] = week 18, Example 2 (combination therapy with metformin)
[18] = week 18, Example 3 (combination therapy with metformin/gemigliptin)
[19] = week 24, Example 2 (combination therapy with metformin)
[20] = week 24, Example 3 (combination therapy with metformin/gemigliptin)

Structure (SMILES)	eGFR [1, 5]	eGFR [1, 6]	eGFR [1, 7]	eGFR [1, 8]	eGFR [1, 9]	eGFR [1, 10]	eGFR [1, 11]	eGFR [1, 12]	eGFR, change from baseline [1, 13]	eGFR, change from baseline [1, 14]	eGFR, change from baseline [1, 15]	eGFR, change from baseline [1, 16]	eGFR, change from baseline [1, 17]	eGFR, change from baseline [1, 18]	eGFR, change from baseline [1, 19]	eGFR, change from baseline [1, 20]	also measured
CCOc1ccc(Cc2cc([C@@H]3O[C@H](CO)[C@@H](O)[C@H](O)[C@H]3O)ccc2Cl)cc1 [Dapagliflozin, reference compound]	92.123	90.5384	92.274	89.8198	94.828	90.9546	93.739	91.6344	−1.908	−1.1439	−1.559	−1.7177	0.897	0.0571	−0.193	0.5790	
OC[C@H]1O[C@@H](c2cc(Cc3ccc(C4CC4)cc3)c(Cl)c3c2CCO3)[C@H](O)[C@@H](O)[C@@H]1O [Enavogliflozin, (2S,3R,4R,5S,6R)-2-(7-chloro-6 (4-cyclopropylbenzyl)-2,3-dihydrobenzofuran-4-yl)-6-(hydroxymethyl)tetrahydro-2H-pyran-3,4,5-triol]	88.574	89.3847	90.566	92.0995	88.185	89.9269	88.056	91.9246	0.425	1.9291	2.488	0.9308	0.105	−1.3048	−0.024	0.7726	Tmax (Pharmacokinetics (Tmax)): 1 to 2 h; Urinary glucose excretion (UGE) after administration ([2]; all renal function groups): increased; Change in eGFR ([2]; patient group with 30≤eGFR<60): eGFR reduction was confirmed; 5-minute dissolution rate [3]: less than 40%; 30-minute dissolution rate [3]: less than 80%; eGFR ([1]; Week 6, Example 1 (monotherapy)): 88.464; eGFR ([1]; Week 12, Example 1 (monotherapy)): 90.142; eGFR ([1]; Week 18, Example 1 (monotherapy)): 91.088; eGFR ([1]; Week 24, Example 1 (monotherapy)): 91.387; Change in eGFR (renal function-related safety) ([1]; phase 3 trials of Examples 1 to 3): no significant change in eGFR; eGFR, change from baseline ([1]; week 6, Example 1 (monotherapy)): −0.845; eGFR, change from baseline ([1]; week 12, Example 1 (monotherapy)): 1.208; eGFR, change from baseline ([1]; week 18, Example 1 (monotherapy)): 2.072; eGFR, change from baseline ([1]; week 24, Example 1 (monotherapy)): 2.371; Reduction of proteinuria compared with other SGLT2 inhibitors ([4]; same dose groups (1 mg/kg)): most excellent effect in reducing proteinuria; TA score (tubular atrophy) ([4]; week 12): significant dose-dependent decrease in tubular atrophy; GS score (glomerulosclerosis) ([4]; week 12, all enavogliflozin-administered groups): trend toward a decrease in the GS score; Urinary albumin concentration (proteinuria) ([4]; weeks 4, 8 and 12): dose-dependent decrease in proteinuria
